# Test results: patent US20180020676A1 (priority 2014, published 2018)
# Tests used:
# [1] = tested on: bean rust (Uromyces appendiculatus); test: Greenhouse control of bean rust versus […] OPTIMUM and chemical agents; format: in vivo; settings: bean plants, 200 k conidia/ml, ten days after infection; biologicals 1×10^8 cfu/ml, Tebuconazole 50 g a.i./ha, Chlorothalonil 500 g a.i./ha; 0.1875% TACTIC in all
# [2] = tested on: bean rust (Uromyces appendiculatus); test: Greenhouse control of bean rust at varying rates of inoculation; format: in vivo; settings: 200K conidia/ml, ten days after infection, biologicals 1×10^8 cfu/ml, Tebuconazole 50 g a.i./ha
# Method: The formulations and treatment methods used were the same as described for the previous experiment. One day after treatment application, the test plants were infected with bean rust (Uromyces appendiculatus) at an inoculation rate ranging from 50 k to 300 k conidia/ml. Ten days after infection with bean rust (Uromyces appendiculatus) the percent of disease control was evaluated for each of: […]
Structure (SMILES),Percent Disease Control [1] [%],Percent Disease Control [2] [a %]
N#Cc1c(Cl)c(Cl)c(Cl)c(C#N)c1Cl [Chlorothalonil],100,–
CC(C)(C)C(O)(CCc1ccc(Cl)cc1)Cn1cncn1 (stereo not drawn) [Tebuconazole],100,100
